Results: ChEMBL document CHEMBL1201862, “PubChem BioAssay data set” (2004)
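Step 1: Grow cells in 96-well plates. Step 2: Expose to compound for 48 hours at 5 concentrations. Step 3: Interpolate endpoints linearly; if unreached, use highest concentration. At the GI50, growth is halved.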 The source made the active and inactive calls. No stated cut-off is given here; in the data, active = GI50 up to about 1.1 µM and inactive = higher.

What was measured:
Test in all cases: NCI-60 cell line screen, 48 h
[1] = test system: U-251
[2] = test system: HOP-62
[3] = test system: Malme-3M
[4] = test system: RXF 393
[5] = test system: OVCAR-4
[6] = test system: RPMI-8226
[7] = test system: HOP-92
[8] = test system: NCI-H460
[9] = test system: HL-60
[10] = test system: A498
[11] = test system: IGROV-1
[12] = test system: BT-549
[13] = test system: UO-31
[14] = test system: SF-539
[15] = test system: MDA-MB-435
[16] = test system: K562
[17] = test system: CCRF-CEM
[18] = test system: CAKI-1
[19] = test system: 786-0
[20] = test system: KM12
[21] = test system: DU-145
[22] = test system: LOX IMVI
[23] = test system: T47D
[24] = test system: COLO 205
[25] = test system: HCT-116
[26] = test system: SN12C
[27] = test system: OVCAR-8
[28] = test system: A549
[29] = test system: NCI-H522
[30] = test system: ACHN
[31] = test system: PC-3
[32] = test system: NCI-H23
[33] = test system: M14
[34] = test system: OVCAR-3
[35] = test system: UACC-257
[36] = test system: TK-10
[37] = test system: SF-268
[38] = test system: SW-620
[39] = test system: MDA-N
[40] = test system: SF-295
[41] = test system: EKVX
[42] = test system: NCI/ADR-RES
[43] = test system: SK-MEL-5
[44] = test system: SK-MEL-28
[45] = test system: NCI-H226
[46] = test system: SK-MEL-2
[47] = test system: OVCAR-5
[48] = test system: SK-OV-3
[49] = test system: UACC-62
[50] = test system: MOLT-4
[51] = test system: MCF7
[52] = test system: HCT-15
[53] = test system: SNB-19
[54] = test system: Hs-578T
[55] = test system: HT-29
[56] = test system: MDA-MB-231
[57] = test system: SNB-75
[58] = test system: HCC 2998

CCCn1c(C23CC4CC(CC(C4)C2)C3)nc2ccc(Cl)cc2c1=O
GI50 [1]: 45.1 µM (inactive)
GI50 [2]: 23.4 µM (inactive)
GI50 [3]: > 100 µM (inactive)
GI50 [4]: 7.11 µM (inactive)
GI50 [5]: 42.2 µM (inactive)
GI50 [6]: 28.7 µM (inactive)
GI50 [7]: 42.8 µM (inactive)
GI50 [8]: 36.1 µM (inactive)
GI50 [9]: 21.6 µM (inactive)
GI50 [10]: 17.9 µM (inactive)
GI50 [11]: 51.9 µM (inactive)
GI50 [12]: 44.2 µM (inactive)
GI50 [13]: 15.6 µM (inactive)
GI50 [14]: > 100 µM (inactive)
GI50 [15]: 36.6 µM (inactive)
GI50 [16]: 43.6 µM (inactive)
GI50 [17]: 45.5 µM (inactive)
GI50 [18]: 30 µM (inactive)
GI50 [19]: 34.2 µM (inactive)
GI50 [20]: 31.9 µM (inactive)
GI50 [21]: 27.9 µM (inactive)
GI50 [22]: 36.6 µM (inactive)
GI50 [23]: 25.8 µM (inactive)
GI50 [24]: 37.2 µM (inactive)
GI50 [25]: 30.1 µM (inactive)
GI50 [26]: 35.2 µM (inactive)
GI50 [27]: 44.4 µM (inactive)
GI50 [28]: 31.2 µM (inactive)
GI50 [29]: 47.2 µM (inactive)
GI50 [30]: 21.2 µM (inactive)
GI50 [31]: 37.1 µM (inactive)
GI50 [32]: 50.5 µM (inactive)
GI50 [33]: 26.1 µM (inactive)
GI50 [34]: 49 µM (inactive)
GI50 [35]: 33.2 µM (inactive)
GI50 [36]: 48.2 µM (inactive)
GI50 [37]: > 100 µM (inactive)
GI50 [38]: > 100 µM (inactive)
GI50 [39]: 33 µM (inactive)
GI50 [40]: 46.6 µM (inactive)
GI50 [41]: 23.9 µM (inactive)
GI50 [42]: 21.9 µM (inactive)
GI50 [43]: 41.3 µM (inactive)
GI50 [44]: 57.5 µM (inactive)
GI50 [45]: > 100 µM (inactive)
GI50 [46]: 47.1 µM (inactive)
GI50 [47]: 74.8 µM (inactive)
GI50 [48]: 49.5 µM (inactive)
GI50 [49]: 25.9 µM (inactive)
GI50 [50]: 33.7 µM (inactive)
GI50 [51]: 23.7 µM (inactive)
GI50 [52]: 45.6 µM
GI50 [53]: 49 µM (inactive)
GI50 [54]: 63.2 µM (inactive)
GI50 [55]: 24.9 µM (inactive)
GI50 [56]: > 100 µM (inactive)

c1ccc2c(c1)SC1Sc3ccccc3[S+]21 (configuration not stated)
GI50 [1]: 20.6 µM (inactive)
GI50 [2]: 31.6 µM (inactive)
GI50 [3]: 2.98 µM (inactive)
GI50 [4]: > 45.1 µM (inactive)
GI50 [5]: 41.3 µM (inactive)
GI50 [6]: 12.9 µM (inactive)
GI50 [7]: 10.4 µM (inactive)
GI50 [8]: 29.5 µM (inactive)
GI50 [9]: 19.8 µM (inactive)
GI50 [10]: 33.3 µM (inactive)
GI50 [11]: 22 µM (inactive)
GI50 [12]: 20.1 µM (inactive)
GI50 [13]: 20.8 µM (inactive)
GI50 [14]: 23.2 µM (inactive)
GI50 [15]: 18.8 µM (inactive)
GI50 [16]: 6.07 µM (inactive)
GI50 [17]: 16.5 µM (inactive)
GI50 [18]: 17.8 µM (inactive)
GI50 [19]: 25.9 µM (inactive)
GI50 [20]: 16.4 µM (inactive)
GI50 [21]: 21.6 µM (inactive)
GI50 [22]: 18.5 µM (inactive)
GI50 [23]: 12.5 µM (inactive)
GI50 [24]: 11.1 µM (inactive)
GI50 [25]: 22.7 µM (inactive)
GI50 [26]: 5.96 µM (inactive)
GI50 [27]: 21.5 µM (inactive)
GI50 [28]: 27.4 µM (inactive)
GI50 [29]: 6.53 µM (inactive)
GI50 [30]: 14.1 µM (inactive)
GI50 [31]: 28.3 µM (inactive)
GI50 [32]: 18.2 µM (inactive)
GI50 [33]: 21.5 µM (inactive)
GI50 [34]: 19.5 µM (inactive)
GI50 [35]: 17.3 µM (inactive)
GI50 [36]: 18.4 µM (inactive)
GI50 [37]: 18.5 µM (inactive)
GI50 [38]: 25.2 µM (inactive)
GI50 [39]: 22.4 µM (inactive)
GI50 [40]: 53.2 µM (inactive)
GI50 [41]: 22 µM (inactive)
GI50 [42]: 19.9 µM (inactive)
GI50 [43]: 7.28 µM (inactive)
GI50 [44]: 16.1 µM (inactive)
GI50 [45]: 19.9 µM (inactive)
GI50 [46]: 34.8 µM (inactive)
GI50 [47]: 27 µM (inactive)
GI50 [48]: > 100 µM (inactive)
GI50 [49]: 17.2 µM (inactive)
GI50 [50]: 13.4 µM (inactive)
GI50 [51]: 25.1 µM (inactive)
GI50 [52]: > 49.9 µM
GI50 [53]: > 81.1 µM (inactive)
GI50 [54]: 64.9 µM (inactive)
GI50 [57]: 38.4 µM (inactive)
GI50 [55]: 27.2 µM (inactive)
GI50 [56]: 23.7 µM (inactive)

CC1(C)Cc2c(c3ccccc3c3nc4c(nc23)c2c(c3ccccc34)OC(C)(C)C2)O1
GI50 [1]: > 100 µM (inactive)
GI50 [2]: > 100 µM (inactive)
GI50 [3]: > 100 µM (inactive)
GI50 [4]: > 100 µM (inactive)
GI50 [5]: > 100 µM (inactive)
GI50 [6]: > 100 µM (inactive)
GI50 [7]: > 100 µM (inactive)
GI50 [8]: > 100 µM (inactive)
GI50 [9]: > 100 µM (inactive)
GI50 [10]: > 100 µM (inactive)
GI50 [11]: > 100 µM (inactive)
GI50 [12]: > 100 µM (inactive)
GI50 [14]: > 100 µM (inactive)
GI50 [15]: > 100 µM (inactive)
GI50 [17]: > 100 µM (inactive)
GI50 [18]: > 100 µM (inactive)
GI50 [19]: > 100 µM (inactive)
GI50 [20]: > 100 µM (inactive)
GI50 [21]: > 100 µM (inactive)
GI50 [22]: > 100 µM (inactive)
GI50 [23]: > 100 µM (inactive)
GI50 [24]: > 100 µM (inactive)
GI50 [25]: > 100 µM (inactive)
GI50 [26]: > 100 µM (inactive)
GI50 [27]: > 100 µM (inactive)
GI50 [28]: > 100 µM (inactive)
GI50 [29]: > 100 µM (inactive)
GI50 [30]: > 100 µM (inactive)
GI50 [31]: > 100 µM (inactive)
GI50 [32]: > 100 µM (inactive)
GI50 [33]: > 100 µM (inactive)
GI50 [34]: > 100 µM (inactive)
GI50 [35]: > 100 µM (inactive)
GI50 [36]: > 100 µM (inactive)
GI50 [37]: > 100 µM (inactive)
GI50 [38]: > 100 µM (inactive)
GI50 [39]: > 100 µM (inactive)
GI50 [40]: > 100 µM (inactive)
GI50 [41]: > 100 µM (inactive)
GI50 [42]: > 100 µM (inactive)
GI50 [43]: > 100 µM (inactive)
GI50 [44]: > 100 µM (inactive)
GI50 [58]: > 100 µM (inactive)
GI50 [46]: > 100 µM (inactive)
GI50 [47]: > 100 µM (inactive)
GI50 [48]: > 100 µM (inactive)
GI50 [49]: > 100 µM (inactive)
GI50 [50]: > 100 µM (inactive)
GI50 [51]: > 100 µM (inactive)
GI50 [52]: > 100 µM
GI50 [53]: > 100 µM (inactive)
GI50 [54]: 39.4 µM (inactive)
GI50 [55]: > 100 µM (inactive)
GI50 [56]: > 100 µM (inactive)
